# Source: US20260250318A1, “COMPOSITIONS AND METHODS FOR CROSSING THE BLOOD BRAIN BARRIER” (VOYAGER THERAPEUTICS, INC., priority 2022, published 2026)
# Columns and labels:
# Details in all cases: synthetic library passage 3, intravenous, relative to wild-type AAV9
# brain [1] = assay: NGS fold enrichment of synthetic library (passage 3) in BALB/c mice, first cross-species screen; type: in vivo
# Method in brief: (§1)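 Fold enrichment versus wild-type AAV9 was derived by NGS of RT-PCR-amplified RNA from nervous tissue, collected e.g. 28 days after IV dosing […]. The library (passage 3) was given to two NHPs aged 2-4 years and to 6-8-week BALB/c and C57Bl/6 mice (n=3 each).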
# brain [2] = assay: NGS fold enrichment of synthetic library (passage 3) in C57Bl/6 mice, first cross-species screen; type: in vivo
# Method in brief: as §1
# [3] = tested on: brain, spinal cord, and DRG of the NHPs; assay: NGS fold enrichment of synthetic library (passage 3) in NHPs, first cross-species screen; type: in vivo, cynomolgus macaques (Macaca fascicularis)
# Method in brief: as §1
# [4] = RNA from brain of BALB/c mice, NGS
# [5] = RNA from brain of C57Bl/6 mice, NGS
# [6] = RNA from spinal cord of NHPs, NGS
Sequence,"Fold enrichment over AAV9 in the brain of Mice (BALB/c) (brain [1]; RNA NGS, brain of BALB/c mice)","Fold enrichment over AAV9 in the brain of Mice (C57Bl/6) (brain [2]; RNA NGS, brain of C57Bl/6 mice)","Fold enrichment over AAV9 in the brain of NHPs ([3]; RNA NGS, brain of NHPs)","Fold enrichment over AAV9 in the spinal cord of NHPs ([3]; RNA NGS, spinal cord of NHPs)",Fold enrichment over AAV9 in the brain of Mice (BALB/c) (brain [1]; [4]),Fold enrichment over AAV9 in the brain of Mice (C57Bl/6) (brain [2]; [5]),"Fold enrichment over AAV9 in the brain of NHPs ([3]; RNA from brain of NHPs, NGS)","Fold enrichment over AAV9 in the spinal cord of NHPs [3, 6]"
GSSQSTGYQPNQQT,0.577 fold,0.522 fold,1.847 fold,3.388 fold,–,–,–,–
GSSREFHSGQNQQT,–,–,–,–,0.474 fold,0.688 fold,1.203 fold,1.591 fold
GSSRVPVSGQNQQT,–,–,–,–,0.485 fold,0.870 fold,1.385 fold,13.191 fold
GSSSPGASGQNQQT,0.660 fold,1.378 fold,1.717 fold,1.244 fold,–,–,–,–
GSSTLVTIGKNQQT,0.819 fold,0.917 fold,1.592 fold,4.316 fold,–,–,–,–
GSSTRVDSGQNQQT,0.660 fold,0.704 fold,1.584 fold,2.774 fold,–,–,–,–
GSSTTIVSGQNHQT,0.672 fold,0.993 fold,1.411 fold,0.000 fold,–,–,–,–
GSSVGSPIGQNQQT,0.706 fold,1.059 fold,1.584 fold,3.574 fold,–,–,–,–
GSSVGVPSGQNQQT,–,–,–,–,1.157 fold,0.336 fold,1.322 fold,4.867 fold
GSSVNSMIGQNQQT,–,–,–,–,0.580 fold,0.976 fold,1.239 fold,0.000 fold
GSSVRSLVGQNQQT,0.608 fold,0.412 fold,1.004 fold,3.840 fold,–,–,–,–
GSSVRYEPKQNQQT,0.501 fold,0.450 fold,1.063 fold,1.564 fold,–,–,–,–
GSSVSPSSGQNQQT,0.787 fold,1.064 fold,2.054 fold,0.579 fold,–,–,–,–
GSTGIVSSGQNQQT,1.046 fold,2.141 fold,1.570 fold,0.927 fold,–,–,–,–
GSTGSHSAGQNQHT,0.850 fold,1.190 fold,3.717 fold,0.285 fold,–,–,–,–
GSTPAGVGGQNQQT,0.477 fold,0.593 fold,1.663 fold,2.733 fold,–,–,–,–

Sequence,"Fold enrichment over AAV9 in the brain of Mice (BALB/c) (brain [1]; RNA NGS, brain of BALB/c mice)","Fold enrichment over AAV9 in the brain of Mice (C57Bl/6) (brain [2]; RNA NGS, brain of C57Bl/6 mice)","Fold enrichment over AAV9 in the brain of NHPs ([3]; RNA NGS, brain of NHPs)","Fold enrichment over AAV9 in the spinal cord of NHPs ([3]; RNA NGS, spinal cord of NHPs)",Fold enrichment over AAV9 in the brain of Mice (BALB/c) (brain [1]; [4]),Fold enrichment over AAV9 in the brain of Mice (C57Bl/6) (brain [2]; [5]),"Fold enrichment over AAV9 in the brain of NHPs ([3]; RNA from brain of NHPs, NGS)","Fold enrichment over AAV9 in the spinal cord of NHPs [3, 6]"
GSTVQDTRGQNQQT,0.473 fold,0.576 fold,2.270 fold,4.979 fold,–,–,–,–
GSVFGVPSGQNQQT,0.213 fold,0.685 fold,1.474 fold,1.248 fold,–,–,–,–
GSVGSRPVGQNQQT,0.716 fold,1.182 fold,1.442 fold,11.363 fold,–,–,–,–
GSVHLSVTGQNQQT,0.282 fold,0.741 fold,2.882 fold,1.157 fold,–,–,–,–
GSVHMQNAGQNQQT,0.625 fold,1.004 fold,1.034 fold,3.608 fold,–,–,–,–
GSVLHSHAAQNQQT,0.423 fold,0.675 fold,4.150 fold,6.448 fold,–,–,–,–
GSVSDVRAGQNQQT,0.747 fold,0.267 fold,2.661 fold,1.647 fold,–,–,–,–
GSVSTHSSGQNQQT,0.918 fold,1.198 fold,2.145 fold,3.446 fold,–,–,–,–
GSVTHGISGQNQQT,0.789 fold,1.135 fold,2.105 fold,4.542 fold,–,–,–,–
GSYGMAASGQNQQT,0.829 fold,1.274 fold,3.817 fold,10.052 fold,–,–,–,–
GTASTYNSGQNQQT,0.625 fold,0.250 fold,1.099 fold,2.560 fold,–,–,–,–
GTDFGRQSSQNQQT,0.797 fold,1.021 fold,2.346 fold,3.196 fold,–,–,–,–
GTEQTRQSGQNQQT,–,–,–,–,0.756 fold,0.756 fold,1.188 fold,0.132 fold
GTHPYTSSGQNQQT,0.471 fold,0.758 fold,2.775 fold,1.684 fold,–,–,–,–
GTPTSPSSGQNQQT,0.662 fold,0.833 fold,1.086 fold,4.558 fold,–,–,–,–
